The results in this text go back to article PMC8230565, “Bisavenathramide Analogues as Nrf2 Inductors and Neuroprotectors in In Vitro Models of Oxidative Stress and Hyperphosphorylation” (Antioxidants, 2021).

Each structure is given as a SMILES string.

Series [1] can be described thus: DPPH radical scavenging assay. The settings on record: for DPPH Scavenging at 0.1 mM, %: 0.1 mM compound; for DPPH Scavenging at 1 mM, %: 1 mM compound; for IC50: n in brackets. As to the method: The direct antioxidant effects of compounds 3 were investigated by studying their radical-scavenging effect on the 2,2-diphenyl-1-picrylhydrazyl free radical (DPPH^•). Thus, a 100 μL volume of a methanol solution of each compound was added to 200 μL of 100 μM methanolic DPPH^•, and the solution was kept in the dark at 37 °C for 30 min in a 96-well microliter plate. After this incubation, the absorption at 490 nm of each solution was measured with a microplate reader in order to quantitate its decrease. A blank reading was also taken to calculate the amount of remaining DPPH^•. The radical-scavenging activity exerted by compounds 3 was determined by comparison with a 10 μL of MeOH-treated blank group. Ascorbic acid, a well-known antioxidant acting as a radical scavenger, was used as reference. All samples were analyzed in triplicate. Percent inhibition of the DPPH^• radical was calculated using the equation shown below, where AbsCtrl is the absorbance of the blank group and Abss is the absorbance of the samples containing compounds 3. For each compound showing a percentage of inhibition above 60%, the IC50 value was determined using a dose–response curve obtained from measurements corresponding to at least six concentrations. %Scavenger=AbsCtrl−AbsS/AbsCtrl×100
The radical scavenging activity of all compounds was first studied by the DPPH assay, which measures the ability of antioxidant compounds to donate a hydrogen atom to the violet 2,2-diphenyl-1-picrylhydrazyl radical and transform it into a nonradical species. Thus, it is generally considered to belong to the hydrogen atom transfer (HAT) category of methods for measurement of antioxidant activity.

Series [2] deals with neuroblastoma SHSY5Y cells. Kind of series: Cytotoxicity in SHSY5Y cells (MTT reduction). In kind it is cell-based. The conditions noted are these: for LD50: MTT reduction. As to the method:
SH-SY5Y cells (ECACC 94030304, Porton Down, Salisbury, UK), from passages between 4 and 16 after defreezing, were maintained in a MEM/F12 containing […] nonessential amino acids and supplemented with 10% fetal bovine serum (FBS), glutamine 1 mM, 50 units/mL of penicillin, and 50 μg/mL of streptomycin (GIBCO, Madrid, Spain). Cells were harvested in a […] flask and incubated at 37 °C with wet atmosphere and 5% CO2, carrying out passages 1:4 twice a week. For neuroprotection experiments, cells were seeded in 96-well plates at a density of 60,000 cells/well. For the toxicity experiments, cells were treated with the compounds under assay before reaching confluence, in MEM/F12 with 1% FBS.
Due to their presumed electrophilicity, the neurotoxicity of our compounds was investigated by investigating their influence on cell viability in the neuroblastoma SHSY5Y cell line prior to other studies in cell cultures. […] It is relevant to note that, despite their reputation for toxicity, interest in covalent drugs has undergone a renaissance, and about 30% of the recently marketed drugs belong to this class.

The next series deals with Nrf2. Briefly: Nrf2 induction, luciferase assay in AREc32 cells. In kind it is cell-based. The settings on record: Arec32, 24 h, read-out: CD (concentration that doubles luciferase activity). As to the method:
AREc32 cells (kindly shared by Dr. Professor Ronald C. Wolf, University of Dundee, Dundee, UK) were grown in Dulbecco’s modified Eagle medium (DMEM) with glutamax, supplemented with 10% fetal bovine serum (FBS), 1% of antibiotics penicillin–streptomycin, and geneticin (0.8 mg/mL, G418) (GIBCO, Madrid, Spain). Cells were harvested in a […] flask with 11 mL of the specified medium, incubated at 37 °C and 5% CO2, and they were transferred to a new flask every 4–6 days, when the confluence was around 80%. Cells were seeded in 96-well white plates (20,000 cells/well) using 100 μL/well. After 24 h, cells were treated with compounds at desired concentrations (1, 5, 10, 15 μM) for 24 h, including tert-butyl hydroquinone (TBHQ, 10 μM) as a positive control. Another 24 h later, luciferase activity was measured through a bioluminescence assay using a “Luciferase assay system” (Promega E1500, Madison, WI, USA), following the protocol given by the provider, and quantifying luminescence in an Orion II microplate luminometer (Berthold, Germany). Measurements were performed by duplicate, and the values were normalized to basal luminescence considered as 1. Nrf2 induction potency was expressed as CD values, i.e., the concentrations required to double the luciferase activity, and are calculated from dose–response curves generated by plotting fold induction of control conditions vs. compound concentration, and fitted by non-linear regression and data interpolated to value 2.
The ability of our compounds to induce Nrf2 was evaluated in the AREc32 cell line, an MCF7 stable clone that is transfected with eight copies of the luciferase reporter gene immediately after the ARE sequence. Therefore, Nrf2 activation and the subsequent transcription of the genes dependent on the ARE element also leads to expression of luciferase, which can be quantitated using a luminescence assay. AREc32 cells were incubated for 24 h with 0.3, 3, 10, 30, and 60 μM concentrations of compounds 3, and a luminescence measurement allowed CD values to be obtained. This parameter characterizes the Nrf2-inducing ability of each compound and represents the concentration required to double the luciferase activity compared to its basal expression.

The subject of another series is SH-SY5Y cells. Briefly: Neuroprotection against rotenone/oligomycin A in SH-SY5Y cells (MTT). In kind it is cell-based. The settings on record: Homo sapiens, 24 h, 1 µM compound, rotenone 30 µM + oligomycin A 10 µM, read-out: % Neuroprotection ± SEM at 1 µM (rotenone/oligomycin A). As to the method: To evaluate the compounds for their neuroprotective effect in an oxidative stress model, we selected the rotenone (30 μM) and oligomycin A (10 μM) (R/O) cocktail, which disturbs the flow of electrons in the mitochondrial respiratory chain. Similarly, SH-SY5Y cells were preincubated with compounds 3 at 1 μM for 24 h. Then, they were co-incubated in the presence of R/O for a further 24 h, evaluating cell viability by the MTT reduction method.
Thus, the R/O combination constitutes a good model of oxidative stress and neurodegeneration with a mitochondrial origin, and has been broadly employed to evaluate potential hit compounds for the treatment of neurodegenerative diseases. Furthermore, treatment of laboratory animals with rotenone is known to induce many features associated to Parkinson’s disease, such as selective nigrostriatal dopaminergic degeneration and the appearance of α-synuclein cytoplasmic inclusions, which are associated with oxidative damage.

`COC(=O)C1=C(C)N(Cc2ccccc2)C(=O)/C1=C\c1ccccc1` [Compound 3a, Methyl (Z)-1-Benzyl-4-benzylidene-2-methyl-5-oxo-4,5-dihydro-1H-pyrrole-3-carboxylate]: in series [1], the “DPPH Scavenging at 0.1 mM, %” value stood at 9.7 ± 3.8% and the “DPPH Scavenging at 1 mM, %” value came to 47.5 ± 4.9%. Moreover, in series [2], the “toxicity assessment” value is given as “too toxic” and the LD50 worked out at 63.7 ± 12.8 µM. Also, in the series on Nrf2, the EC (2-fold luciferase activity) stood at 30.2 ± 1.89 µM. Besides, the % neuroprotection against rotenone/oligomycin A toxicity at 1 µM in the series on SH-SY5Y cells worked out at 44.3 ± 13.6%.
As to `COC(=O)C1=C(C)N(Cc2ccccc2)C(=O)/C1=C\c1ccc(OC)cc1` [Compound 3b, Methyl (Z)-1-Benzyl-4-(4-methoxybenzylidene)-2-methyl-5-oxo-4,5-dihydro-1H-pyrrole-3-carboxylate], in series [1], the “DPPH Scavenging at 0.1 mM, %” value was determined as 6.5 ± 4.5% and the “DPPH Scavenging at 1 mM, %” value is recorded as 27.2 ± 6.4%. The molecule also registered an LD50 in series [2] above 100 µM. In the series on Nrf2, the EC (2-fold luciferase activity) came to 18 ± 1.84 µM. Besides, the % neuroprotection against rotenone/oligomycin A toxicity at 1 µM in the series on SH-SY5Y cells turned out to be 68 ± 31.5%.
Regarding `COC(=O)C1=C(C)N(Cc2ccccc2)C(=O)/C1=C\c1ccc(Cl)cc1` [Compound 3c, Methyl (Z)-1-Benzyl-4-(4-chlorobenzylidene)-2-methyl-5-oxo-4,5-dihydro-1H-pyrrole-3-carboxylate], in series [1], the “DPPH Scavenging at 0.1 mM, %” value came out at 3.7 ± 3.8% and the “DPPH Scavenging at 1 mM, %” value turned out to be 36.6 ± 3.4%. Also, in series [2], the “toxicity assessment” value is given as “too toxic”. Moreover, in the series with Nrf2, the EC (2-fold luciferase activity) worked out at 15 ± 0.8 µM. Besides, the % neuroprotection against rotenone/oligomycin A toxicity at 1 µM in the series with SH-SY5Y cells is above 90%.
In the case of `COC(=O)C1=C(C)N(CCc2ccccc2)C(=O)/C1=C\c1ccc2c(c1)OCO2` [Compound 3d, Methyl (Z)-4-(Benzo[d](1,3)dioxol-5-ylmethylene)-2-methyl-5-oxo-1-phenethyl-4,5-dihydro-1H-pyrrole-3-carboxylate], in series [1], the “DPPH Scavenging at 0.1 mM, %” value came out at 40.5 ± 5.0% and the “DPPH Scavenging at 1 mM, %” value stood at 41.6 ± 4.1%. In series [2], the LD50 is above 100 µM. Further, in the series with Nrf2, the EC (2-fold luciferase activity) was determined as 17.9 ± 8.58 µM. The % neuroprotection against rotenone/oligomycin A toxicity at 1 µM with SH-SY5Y cells was 49.8 ± 9.46%.
As for `COC(=O)C1=C(C)N(CCc2ccccc2)C(=O)/C1=C\c1ccc(OC)cc1OC` [Compound 3e, Methyl (Z)-4-(2,4-Dimethoxybenzylidene)-2-methyl-5-oxo-1-phenethyl-4,5-dihydro-1H-pyrrole-3-carboxylate], in series [1], the “DPPH Scavenging at 0.1 mM, %” value worked out at 6.33 ± 4.2% and the “DPPH Scavenging at 1 mM, %” value amounted to 27.0 ± 2.6%. In addition, the LD50 in series [2] is above 100 µM. Also, the EC (2-fold luciferase activity) with Nrf2 worked out at 10.4 ± 0.8 µM. Besides, the % neuroprotection against rotenone/oligomycin A toxicity at 1 µM in the series on SH-SY5Y cells turned out to be 50.3 ± 16.3%.
The matching figures for `COC(=O)C1=C(C)N(CCc2ccccc2)C(=O)/C1=C\c1cc(OC)c(OC)cc1OC` [Compound 3f, Methyl (Z)-2-Methyl-5-oxo-1-phenethyl-4-(2,4,5-trimethoxybenzylidene)-4,5-dihydro-1H-pyrrole-3-carboxylate]: 9.7 ± 0.6%, 9.7 ± 2.2%, above 100 µM, 31.1 ± 6.21 µM and 51 ± 16.9%.
With `COC(=O)C1=C(C)N(CCc2ccccc2)C(=O)/C1=C\c1cc(OC)c(OC)c(OC)c1` [Compound 3g, Methyl (Z)-2-Methyl-5-oxo-1-phenethyl-4-(3,4,5-trimethoxybenzylidene)-4,5-dihydro-1H-pyrrole-3-carboxylate], in series [1], the “DPPH Scavenging at 0.1 mM, %” value was found to be 8.1 ± 4.7% and the “DPPH Scavenging at 1 mM, %” value was 46.5 ± 2.3%. Also, the LD50 in series [2] was above 100 µM. The % neuroprotection against rotenone/oligomycin A toxicity at 1 µM in the series on SH-SY5Y cells was 74.5 ± 7.19%.
In the case of `COC(=O)C1=C(C)N(CCc2ccccc2)C(=O)/C1=C\c1ccc(OC)c(O)c1` [Compound 3h, Methyl (Z)-4-(3-Hydroxy-4-methoxybenzylidene)-2-methyl-5-oxo-1-phenethyl-4,5-dihydro-1H-pyrrole-3-carboxylate], in series [1], the “radical scavenging activity in the DPPH assay” value is on record as “high radical scavenging activity”; the “DPPH Scavenging at 0.1 mM, %” value was 89.0 ± 0.4%; inhibition was half-maximal at 26.3 ± 2.1 µM (IC50). The molecule also yielded an LD50 in series [2] above 100 µM. Besides, in the series with Nrf2, the EC (2-fold luciferase activity) stood at 36.1 ± 418 µM. Further, the % neuroprotection against rotenone/oligomycin A toxicity at 1 µM in the series with SH-SY5Y cells was 46.2 ± 18.9%.
For `COC(=O)C1=C(C)N(CCc2ccccc2)C(=O)/C1=C\c1ccc(O)c(O)c1` [Compound 3i, Methyl (Z)-4-(3,4-Dihydroxybenzylidene)-2-methyl-5-oxo-1-phenethyl-4,5-dihydro-1H-pyrrole-3-carboxylate], in series [1], the “radical scavenging activity in the DPPH assay” value is recorded as “high radical scavenging activity”; the “DPPH Scavenging at 0.1 mM, %” value is 90.9 ± 0.5%; the IC50 stood at 7.5 ± 0.4 µM. Moreover, in series [2], the “toxicity assessment” value is reported as “suitable toxicity profile” and the LD50 is 92.8 ± 4.6 µM. In the series with Nrf2, the EC (2-fold luciferase activity) was below 10 µM. For the same molecule, the % neuroprotection against rotenone/oligomycin A toxicity at 1 µM in the series on SH-SY5Y cells was above 90%.
On to `COC(=O)C1=C(C)N(CCc2ccccc2)C(=O)/C1=C\c1ccc(OCc2ccccc2F)c(OC)c1` [Compound 3j, Methyl (Z)-4-[4-((2-Fluorobenzyl)oxy)-3-methoxybenzylidene]-2-methyl-5-oxo-1-phenethyl-4,5-dihydro-1H-pyrrole-3-carboxylate], for which, in series [1], the “DPPH Scavenging at 0.1 mM, %” value was 4.3 ± 2.1% and the “DPPH Scavenging at 1 mM, %” value turned out to be 31.3 ± 3.3%. In addition, in series [2], the LD50 was above 100 µM. Further, the EC (2-fold luciferase activity) with Nrf2 was 11.9 ± 2.83 µM. In addition, the % neuroprotection against rotenone/oligomycin A toxicity at 1 µM in the series on SH-SY5Y cells turned out to be 51.2 ± 15.5%.
For the molecule `COC(=O)C1=C(C)N(CCc2ccccc2)C(=O)/C1=C\c1ccc(OCc2ccccc2Cl)c(OC)c1` [Compound 3k, Methyl (Z)-4-[4-((2-Chlorobenzyl)oxy)-3-methoxybenzylidene]-2-methyl-5-oxo-1-phenethyl-4,5-dihydro-1H-pyrrole-3-carboxylate], in series [1], the “DPPH Scavenging at 0.1 mM, %” value came to 7.3 ±1.4% and the “DPPH Scavenging at 1 mM, %” value is given as 27.3 ± 1.0%. In series [2], this molecule had an LD50 above 100 µM. Also, the EC (2-fold luciferase activity) with Nrf2 was below 10 µM. For the same molecule, the % neuroprotection against rotenone/oligomycin A toxicity at 1 µM in the series with SH-SY5Y cells is 60.3 ± 20.9%.
